# Results taken from ChEMBL document CHEMBL1201862, “PubChem BioAssay data set” (2004).
#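 Protocol summary: plate cells (96-well), add compound at 5 concentrations, incubate 48 h, interpolate endpoints linearly. GI50: concentration for 50% inhibition of growth.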 Active and inactive are the calls of the source. No stated cut-off is given here; in the data, active = GI50 up to about 1.1 µM and inactive = higher.
# How the values were obtained:
# Assay in all cases: NCI anticancer screen, dose series, 48 h
# DU-145 = test system: DU-145
# CAKI-1 = test system: CAKI-1
# MCF7 = test system: MCF7
# PC-3 = test system: PC-3
# UACC-62 = test system: UACC-62
# HCT-116 = test system: HCT-116
# A498 = test system: A498
# RPMI-8226 = test system: RPMI-8226
# SNB-75 = test system: SNB-75
# OVCAR-3 = test system: OVCAR-3
# CCRF-CEM = test system: CCRF-CEM
# RXF 393 = test system: RXF 393
# OVCAR-5 = test system: OVCAR-5
# Malme-3M = test system: Malme-3M
# HT-29 = test system: HT-29
# UACC-257 = test system: UACC-257
# SK-MEL-5 = test system: SK-MEL-5
# NCI-H460 = test system: NCI-H460
# SK-MEL-28 = test system: SK-MEL-28
# COLO 205 = test system: COLO 205
# SNB-19 = test system: SNB-19
# HCC 2998 = test system: HCC 2998
# NCI-H23 = test system: NCI-H23
# ACHN = test system: ACHN
# KM12 = test system: KM12
# BT-549 = test system: BT-549
# M14 = test system: M14
# MDA-N = test system: MDA-N
# OVCAR-8 = test system: OVCAR-8
# SW-620 = test system: SW-620
# EKVX = test system: EKVX
# HOP-62 = test system: HOP-62
# MDA-MB-435 = test system: MDA-MB-435
# MOLT-4 = test system: MOLT-4
# A549 = test system: A549
# MDA-MB-231 = test system: MDA-MB-231
# HL-60 = test system: HL-60
# IGROV-1 = test system: IGROV-1
# U-251 = test system: U-251
# HCT-15 = test system: HCT-15
# SF-268 = test system: SF-268
# NCI/ADR-RES = test system: NCI/ADR-RES
# SF-295 = test system: SF-295
# 786-0 = test system: 786-0
# TK-10 = test system: TK-10
# LOX IMVI = test system: LOX IMVI
# HOP-92 = test system: HOP-92
# T47D = test system: T47D
# NCI-H226 = test system: NCI-H226
# NCI-H522 = test system: NCI-H522
# SR = test system: SR
# SK-OV-3 = test system: SK-OV-3
# UO-31 = test system: UO-31
# OVCAR-4 = test system: OVCAR-4
# SF-539 = test system: SF-539
# SN12C = test system: SN12C
# K562 = test system: K562
# Hs-578T = test system: Hs-578T
# SK-MEL-2 = test system: SK-MEL-2
structure (smiles),measurement,setting,value
CCOP(=O)(OCC)/C(C#N)=C/c1c(C)[nH]c2ccccc12,GI50,DU-145,> 100 µM (inactive)
same,GI50,CAKI-1,> 100 µM (inactive)
same,GI50,MCF7,> 100 µM (inactive)
same,GI50,PC-3,> 100 µM (inactive)
same,GI50,UACC-62,> 100 µM (inactive)
same,GI50,HCT-116,> 100 µM (inactive)
same,GI50,A498,> 100 µM (inactive)
same,GI50,RPMI-8226,> 100 µM (inactive)
same,GI50,SNB-75,> 100 µM (inactive)
same,GI50,OVCAR-3,> 100 µM (inactive)
same,GI50,CCRF-CEM,> 100 µM (inactive)
same,GI50,RXF 393,> 100 µM (inactive)
same,GI50,OVCAR-5,> 100 µM (inactive)
same,GI50,Malme-3M,> 100 µM (inactive)
same,GI50,HT-29,> 100 µM (inactive)
same,GI50,UACC-257,> 100 µM (inactive)
same,GI50,SK-MEL-5,> 100 µM (inactive)
same,GI50,NCI-H460,> 100 µM (inactive)
same,GI50,SK-MEL-28,> 100 µM (inactive)
same,GI50,COLO 205,> 100 µM (inactive)
same,GI50,SNB-19,> 100 µM (inactive)
same,GI50,HCC 2998,> 100 µM (inactive)
same,GI50,NCI-H23,> 100 µM (inactive)
same,GI50,ACHN,> 100 µM (inactive)
same,GI50,KM12,> 100 µM (inactive)
same,GI50,BT-549,> 100 µM (inactive)
same,GI50,M14,> 100 µM (inactive)
same,GI50,MDA-N,> 100 µM (inactive)
same,GI50,OVCAR-8,> 100 µM (inactive)
same,GI50,SW-620,> 100 µM (inactive)
same,GI50,EKVX,> 100 µM (inactive)
same,GI50,HOP-62,> 100 µM (inactive)
same,GI50,MDA-MB-435,> 100 µM (inactive)
same,GI50,MOLT-4,> 100 µM (inactive)
same,GI50,A549,> 100 µM (inactive)
same,GI50,MDA-MB-231,> 100 µM (inactive)
same,GI50,HL-60,> 100 µM (inactive)
same,GI50,IGROV-1,> 100 µM (inactive)
same,GI50,U-251,> 100 µM (inactive)
same,GI50,HCT-15,> 100 µM
same,GI50,SF-268,> 100 µM (inactive)
same,GI50,NCI/ADR-RES,> 100 µM (inactive)
same,GI50,SF-295,> 100 µM (inactive)
same,GI50,786-0,> 100 µM (inactive)
same,GI50,TK-10,> 100 µM (inactive)
same,GI50,LOX IMVI,> 100 µM (inactive)
same,GI50,HOP-92,> 100 µM (inactive)
same,GI50,T47D,> 100 µM (inactive)
same,GI50,NCI-H226,> 100 µM (inactive)
same,GI50,NCI-H522,> 100 µM (inactive)
same,GI50,SR,> 100 µM (inactive)
same,GI50,SK-OV-3,> 100 µM (inactive)
same,GI50,UO-31,30.4 µM (inactive)
same,GI50,OVCAR-4,> 100 µM (inactive)
same,GI50,SF-539,> 100 µM (inactive)
same,GI50,SN12C,> 100 µM (inactive)
same,GI50,K562,> 100 µM (inactive)
same,GI50,Hs-578T,> 100 µM (inactive)
COC(=O)C(=O)C(C(=O)C(=O)Nc1ccccc1C(N)=O)c1nc2ccc(Cl)cc2nc1O (stereo not drawn),GI50,DU-145,> 100 µM (inactive)
same,GI50,CAKI-1,82.8 µM (inactive)
same,GI50,MCF7,> 100 µM (inactive)
same,GI50,PC-3,> 100 µM (inactive)
same,GI50,UACC-62,> 100 µM (inactive)
same,GI50,HCT-116,> 100 µM (inactive)
same,GI50,A498,> 100 µM (inactive)
same,GI50,RPMI-8226,> 100 µM (inactive)
same,GI50,SNB-75,33.7 µM (inactive)
same,GI50,OVCAR-3,> 100 µM (inactive)
same,GI50,CCRF-CEM,> 100 µM (inactive)
same,GI50,RXF 393,> 100 µM (inactive)
same,GI50,OVCAR-5,> 100 µM (inactive)
same,GI50,HT-29,> 100 µM (inactive)
same,GI50,UACC-257,> 100 µM (inactive)
same,GI50,SK-MEL-5,> 100 µM (inactive)
same,GI50,NCI-H460,> 100 µM (inactive)
same,GI50,SK-MEL-28,> 100 µM (inactive)
same,GI50,COLO 205,> 100 µM (inactive)
same,GI50,SNB-19,> 100 µM (inactive)
same,GI50,SK-MEL-2,> 100 µM (inactive)
same,GI50,HCC 2998,> 100 µM (inactive)
same,GI50,NCI-H23,> 100 µM (inactive)
same,GI50,ACHN,> 100 µM (inactive)
same,GI50,KM12,> 100 µM (inactive)
same,GI50,BT-549,> 100 µM (inactive)
same,GI50,M14,> 100 µM (inactive)
same,GI50,MDA-N,> 100 µM (inactive)
same,GI50,OVCAR-8,> 100 µM (inactive)
same,GI50,SW-620,> 100 µM (inactive)
same,GI50,MDA-MB-435,> 100 µM (inactive)
same,GI50,MOLT-4,> 100 µM (inactive)
same,GI50,A549,> 100 µM (inactive)
same,GI50,MDA-MB-231,> 100 µM (inactive)
same,GI50,HL-60,> 100 µM (inactive)
same,GI50,U-251,> 100 µM (inactive)
same,GI50,HCT-15,> 100 µM
same,GI50,SF-268,> 100 µM (inactive)
same,GI50,NCI/ADR-RES,> 100 µM (inactive)
same,GI50,SF-295,> 100 µM (inactive)
same,GI50,786-0,> 100 µM (inactive)
same,GI50,LOX IMVI,> 100 µM (inactive)
same,GI50,HOP-92,> 100 µM (inactive)
same,GI50,T47D,> 100 µM (inactive)
same,GI50,NCI-H226,> 100 µM (inactive)
same,GI50,SR,> 100 µM (inactive)
same,GI50,SK-OV-3,> 100 µM (inactive)
same,GI50,UO-31,> 100 µM (inactive)
same,GI50,OVCAR-4,> 100 µM (inactive)
same,GI50,SF-539,> 100 µM (inactive)
same,GI50,SN12C,> 100 µM (inactive)
same,GI50,K562,> 100 µM (inactive)
same,GI50,Hs-578T,46.5 µM (inactive)
O=c1[nH]c(=O)n(C2CC(O)C(CO)O2)c2nc3ccc4ccccc4c3nc12 (stereo not drawn),GI50,DU-145,> 100 µM (inactive)
same,GI50,CAKI-1,> 100 µM (inactive)
same,GI50,MCF7,46.3 µM (inactive)
same,GI50,PC-3,73.8 µM (inactive)
same,GI50,UACC-62,56.9 µM (inactive)
same,GI50,HCT-116,> 100 µM (inactive)
same,GI50,A498,> 100 µM (inactive)
same,GI50,RPMI-8226,22.8 µM (inactive)
same,GI50,SNB-75,52.8 µM (inactive)
same,GI50,OVCAR-3,> 100 µM (inactive)
same,GI50,CCRF-CEM,34.2 µM (inactive)
same,GI50,RXF 393,56.6 µM (inactive)
same,GI50,OVCAR-5,> 100 µM (inactive)
same,GI50,Malme-3M,> 100 µM (inactive)
same,GI50,UACC-257,> 100 µM (inactive)
same,GI50,SK-MEL-5,54.1 µM (inactive)
same,GI50,NCI-H460,21.3 µM (inactive)
same,GI50,SK-MEL-28,94.2 µM (inactive)
same,GI50,COLO 205,64.9 µM (inactive)
same,GI50,SNB-19,30.5 µM (inactive)
same,GI50,SK-MEL-2,95.5 µM (inactive)
same,GI50,HCC 2998,59 µM (inactive)
same,GI50,NCI-H23,> 100 µM (inactive)
same,GI50,ACHN,> 100 µM (inactive)
same,GI50,KM12,> 100 µM (inactive)
same,GI50,BT-549,66.4 µM (inactive)
same,GI50,M14,> 100 µM (inactive)
same,GI50,MDA-N,> 100 µM (inactive)
same,GI50,OVCAR-8,79.1 µM (inactive)
same,GI50,SW-620,99.8 µM (inactive)
same,GI50,EKVX,72.4 µM (inactive)
same,GI50,HOP-62,32.4 µM (inactive)
same,GI50,MDA-MB-435,> 100 µM (inactive)
same,GI50,MOLT-4,24.5 µM (inactive)
same,GI50,A549,> 100 µM (inactive)
same,GI50,MDA-MB-231,26.9 µM (inactive)
same,GI50,IGROV-1,47.4 µM (inactive)
same,GI50,U-251,33.7 µM (inactive)
same,GI50,HCT-15,62.2 µM
same,GI50,SF-268,55.8 µM (inactive)
same,GI50,NCI/ADR-RES,> 100 µM (inactive)
same,GI50,SF-295,53.6 µM (inactive)
same,GI50,786-0,74.3 µM (inactive)
same,GI50,TK-10,> 100 µM (inactive)
same,GI50,LOX IMVI,35.4 µM (inactive)
same,GI50,HOP-92,25.6 µM (inactive)
same,GI50,T47D,93.8 µM (inactive)
same,GI50,NCI-H226,17.8 µM (inactive)
same,GI50,NCI-H522,45.6 µM (inactive)
same,GI50,SR,24.9 µM (inactive)
same,GI50,SK-OV-3,> 100 µM (inactive)
same,GI50,UO-31,> 100 µM (inactive)
same,GI50,OVCAR-4,67.9 µM (inactive)
same,GI50,SF-539,92.9 µM (inactive)
same,GI50,SN12C,51.2 µM (inactive)
same,GI50,K562,45.2 µM (inactive)
same,GI50,Hs-578T,55.5 µM (inactive)
